Results: US11401278B2, “Macrocyclic indole derivatives” (The Broad Institute, Inc., priority 2017, dated 2022)
Several values for one entry are separate records, joined by “and”; a condition that tells them apart may be missing. Equal values may be shown once. Where a name gives a salt, the structure may show the parent alone. Read-outs that look alike come from different tables or passages of the source. Values belong to the molecule of their own block, whether it stands above or below them.

Legend:
A2780 = assay: Antiproliferation assay (Assay 7), A2780; format: cell-based; details: CellTiter-Glo, several values per example
Description: Assessment of the Anti-Proliferative Effect of Compounds in Different Cell Lines
The impact of compounds on the proliferation of different cell lines was assessed using the CellTiter-Glo® Luminescent Cell Viability reagent from Promega (G7573).
In parallel, cells were plated in a reference (day 0) plate for time zero determination.
Rim wells were excluded. The cells were incubated for 72 hours in a humidified incubator at 37° C. The day 0 plate was measured by adding 30 μL/well of CTG solution (CellTiter-Glo® Luminescent Cell Viability reagent, Promega G7573) to time zero wells in the reference plate followed by a 10 minutes incubation and luminescence reading at 0.1 ms. using the PHERAstar FS microplate reader (BMG Labtech).
After 72 hours incubation, the treated plates were measured in the same way as the day 0 plate mentioned above.

MCL-1 = MCL-1 (Homo sapiens (Human), UniProt Q07820, K194A/K197A/R201A); assay: Protein-compound interaction assay (SPR assay, Assay 8); format: binding; details: immobilized MBP-MCL-1, 25° C., geometric mean
From the text: Assay 8 Protein-Compound Interaction Assay (SPR Assay)
The ability of the compounds described in this invention to bind to MCL-1 may be determined using surface plasmon resonance (SPR). This allows for the quantification of binding in terms of the equilibrium dissociation constant (KD [M]), as well as association and dissociation rate constants (kon [1/M 1/s] and koff [1/s], respectively). The measurements may be performed using Biacore® T200 or Biacore® S200 instruments (GE Healthcare).
For SPR measurements, recombinant MCL-1 (amino acids 173-321, N-terminal fused to Maltose Binding Protein (MBP) (SEQ ID 1) purchased from Beryllium (Bedford, Mass., USA)) was immobilized using standard amine coupling (Johnsson B et al, Anal Biochem. 1991 Nov. 1; 198(2):268-77). Briefly, carboxymethylated dextran biosensor chips (Series S Sensor Chip CMS, GE Healthcare) were activated with 1-ethyl-3-(3-dimethylaminopropyl)-carbodiimide hydrochloride (EDC) and N-hydroxysuccinimide (NHS) according to the supplier's instructions. MBP-MCL-1 was diluted in 1×PBS-P+ (GE Healthcare) and injected on the activated chip surface. Subsequently, a solution of 1 M ethanolamine-HCl (GE Healthcare) was injected to block unreacted groups, resulting in approximately 400-2500 response units (RU) of immobilized protein. A reference surface was generated by treatment with NHS-EDC and ethanolamine-HCl. Compounds were dissolved in 100% dimethylsulfoxide (DMSO) to a concentration of 10 mM and subsequently diluted in running buffer (1×PBS-P+ (GE Healthcare) [generated from PBS-P+ Buffer 10× (GE Healthcare): 0.2 M phosphate buffer with 27 mM KCl, 1.37 M NaCl and 0.5% Surfactant P20 (Tween 20).], 1% v/v DMSO). For SPR binding-measurements, serial dilutions of compound (eight dilution steps, typically ranging from 0.2 nM up to 1 μM) were injected over immobilized protein. […] Compounds were injected for 60 s followed by a dissociation time of up to 1000 s.
The double-referenced sensorgrams were fit to a simple reversible Langmuir 1:1 reaction mechanism as implemented in the Biacore® T200 and S200 evaluation software (T200 evaluation software version 2.0 and S200 evaluation software version 1.0, GE Healthcare).

MCL1 protein = MCL1 protein (Homo sapiens (Human), UniProt Q07820); assay: PIxEL: protein-protein interaction in permeabilized cells by ELISA (Assay 5); format: cell-based; details: permeabilized RKO cells, Biotin-BIM peptide 0.2 μM, serum free; median
Description: PI×EL: Protein-Protein Interaction in Permeabilized Cells by ELISA
Most MCL1 protein molecules are localized at the mitochondria outer membrane and sequester pro-apoptotic proteins through binding of their BCL2 homology domain 3 (BH3 domain). MEB buffer (150 mM mannitol, 10 mM HEPES pH 7.5, 50 mM KCl, 20 μM EDTA, 20 μM EGTA, 5 mM potassium succinate, 0.1% protease-free BSA (SIGMA) with low dose digitonin (0.002%) permeabilizes plasma membrane while leaves live mitochondria, where MCL1 maintains its native localization and conformation. Unlike biophysical assays (e.g. TR-FRET) that use truncated recombinant MCL1 protein, this assay uses full length endogenous MCL1 protein at mitochondria outer membrane. It measures the interaction between MCL1 protein and biotinylated BIM BH3 peptide. Compounds can compete with BIM BH3 peptide to bind to MCL1 protein. This serum free assay measures the affinity between MCL1 protein and compound in permeabilized cells, therefore it is not affected by serum binding and cell permeability, and can measure the intrinsic compound affinity.
On day 1, RKO colon cancer cell line cells were plated at 0.8 million cells/ml, 100 μl/well in 96-well flat bottom TC plates (Corning). MCL1 antibody (Santa Cruz sc-12756) were diluted at 200 fold (final concentration 1 μg/ml) in carbonate buffer (Thermo Fisher Scientific, pH 9.6), and 50 μl of diluted antibody was added to each well of high bind ELISA plates (SARSTEDT). Each plate was tapped to make sure liquid covering entire bottom of wells and incubate at 37° C. overnight.
On the second day, MCL1 antibody was washed from ELISA plate. 250 μl Odyssey® Blocking Buffer (PBS) (Li-Cor) was added to each well, incubated at room temperature for at least 1 hour, then washed once with 250 μl 1×PBST. Plates with RKO cells were gently washed once with 100 μl/well PBS, once with 100 μl/well MEB buffer without digitonin, then 100 μl of MEB buffer with 0.002% digitonin was gently added to each well. Compounds were added with HP Tecan compound dispenser in 3-fold dilution series, highest dose 30 μM, 10-dose per compound in quadruplicates. Biotin-BIM peptide (synthesized by 21st Century) was added with HP Tecan compound dispenser at 0.2 μM immediately after the addition of compounds. Plates were rocked for 1 hour at room temperature. Then MEB buffer was aspirated and 50 μl of CHAPS buffer (50 mM Tris-Cl, pH 7.4, 150 mM NaCl, 1% CHAPS, 1 mM EDTA, 1 mM EGTA, cOmplete protease inhibitors (Roche), PhosSTOP (Roche)) was added to each well. Plates were rocked for 1 hour at 4° C., then 45 μl cell lysate from each well were transferred to ELISA plates coated with MCL1 antibody. Plates were incubated overnight in the cold room with rocking.
On the third day, ELISA plates were washed once with 250 μl 1×PBST. Streptavidin-poly-HRP (Thermo Fisher Scientific) was diluted to 20 ng/ml in Odyssey blocking buffer plus 0.05% Triton-100, and 100 μl was added to each well of the ELISA plate. Plates were incubated at room temperature for 1 hour with rocking, then washed with 100 μL 1×PBST for 3 times. Each SuperSignal ELISA Femto Maximum Sensitivity substrate was added to a 50-ml tube and mixed, then 100 μl of mixed substrate was added to each well. Plates were shaken for 1 minute then luminescence was measured by Envision plate reader […]. Signal of each well were normalized by no-compound control and no-cell control. IC50 was calculated using Graphic Pad PRISM software.

Sequence of MCL-1 (Q07820 whole entry K194A/K197A/R201A, looked up): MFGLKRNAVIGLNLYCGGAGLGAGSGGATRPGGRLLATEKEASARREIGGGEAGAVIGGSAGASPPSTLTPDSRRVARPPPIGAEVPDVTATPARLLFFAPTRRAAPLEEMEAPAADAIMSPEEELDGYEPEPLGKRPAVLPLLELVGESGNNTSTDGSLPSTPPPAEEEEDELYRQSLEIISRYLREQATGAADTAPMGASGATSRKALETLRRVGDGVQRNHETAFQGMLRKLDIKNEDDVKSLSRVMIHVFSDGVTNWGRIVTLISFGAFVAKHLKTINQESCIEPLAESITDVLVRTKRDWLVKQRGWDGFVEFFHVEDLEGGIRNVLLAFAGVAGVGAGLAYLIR
Sequence of MCL1 protein (Q07820 whole entry): as the sequence (Q07820 whole entry K194A/K197A/R201A, looked up) above, with A194K, A197K, A201R counted along it

- IC50 (A2780; 72 hours, listed as 04, read-out: Antiproli A2780 [M] IC50): 1.66e-05 M
- IC50 (A2780; Homo sapiens, A2780, 72 h, read-out: Antiproli A2780 [M] IC50): 1.22e-05 M
Compound: Cc1c2c(nn1C)CN(C)S(=O)(=O)CCCn1c(C(=O)O)c(CCCOc3cccc4ccccc34)c3ccc(Cl)c-2c31 (racemic) [Example 4, (rac)-4-Chloro-2,3,14-trimethyl-7-{3-[(naphthalen-1-yl)oxy]propyl}-13,13-dioxo-10,11,12,13,14,15-hexahydro-2H-13λ^6-pyrazolo[3′,4′:4,5][1,2,8]thiadiazacycloundecino-[6,7,8-hi]indole-8-carboxylic acid]

- Kd (MCL-1): 0.0024 µM
- koff (MCL-1; read-out: koff): 0.0079 s⁻¹
- kon (MCL-1; read-out: kon): 3.2e+06 M⁻¹ s⁻¹
- IC50 (A2780; 72 hours, listed as 05, read-out: Antiproli A2780 [M] IC50): 9.33e-06 M and 1.13e-05 M
- IC50 (MCL1 protein): 0.57 µM
Compound: Cc1c2c(nn1C)CN(C)S(=O)(=O)CCCn1c(C(=O)O)c(CCCOc3cccc4ccccc34)c3ccc(Cl)c-2c31 (single isomer, unassigned; enantiomer 1) [Example 5, 4-Chloro-2,3,14-trimethyl-7-{3-[(naphthalen-1-yl)oxy]propyl}-13,13-dioxo-10,11,12,13,14,15-hexahydro-2H-13λ^6-pyrazolo[3′,4′:4,5][1,2,8]thiadiazacycloundecino[6,7,8-hi]indole-8-carboxylic acid-N-ethylethanamine salt (Enantiomer 1)]

- IC50 (A2780; 72 hours, listed as 03, read-out: Antiproli A2780 [M] IC50): 2.11e-05 M
Compound: Cc1c2c(nn1C)CN(CCN1CCOCC1)S(=O)(=O)CCCn1c(C(=O)O)c(CCCOc3cccc4ccccc34)c3cccc-2c31 (single isomer, unassigned; enantiomer 2) [Example 3, 2,3-Dimethyl-14-[2-(morpholin-4-yl)ethyl]-7-{3-[(naphthalen-1-yl)oxy]propyl}-13,13-dioxo-10,11,12,13,14,15-hexahydro-2H-13λ^6-pyrazolo[3′,4′:4,5][1,2,8]thiadiazacycloundecino-[6,7,8-hi]indole-8-carboxylic acid-N-ethylethanamine salt (Enantiomer 2)]

- IC50 (A2780; 72 hours, listed as 06, read-out: Antiproli A2780 [M] IC50): 1.19e-05 M
Compound: Cc1c2c(nn1C)CN(C)S(=O)(=O)CCCn1c(C(=O)O)c(CCCOc3cccc4ccccc34)c3ccc(Cl)c-2c31 (single isomer, unassigned; enantiomer 2) [Example 6, 4-Chloro-2,3,14-trimethyl-7-{3-[(naphthalen-1-yl)oxy]propyl}-13,13-dioxo-10,11,12,13,14,15-hexahydro-2H-13λ^6-pyrazolo[3′,4′:4,5][1,2,8]thiadiazacycloundecino[6,7,8-hi]indole-8-carboxylic acid-N-ethylethanamine salt (Enantiomer 2)]
